From the supplement of paper PMC10307832

How the values were obtained:
Assay in all cases: relative viability (nuclei count vs DMSO), 5 days (fraction); higher = more cells survive
[1] = compound: N#CC[C@H](C1CCCC1)n1cc(-c2ncnc3[nH]ccc23)cn1 [Ruxolitinib] + N=C(N)NC(=N)NCCc1ccccc1 [Phenformin] (partner 250 µM)
In short: (§1)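 One day after seeding in 1536-well plates, lung cancer cell lines were dosed by pin tool. Dosing was either single-drug or a fixed anchor-drug dose plus five library-drug doses (not always all listed) in √10 steps. After 5 days, nuclei were stained in one fix-and-stain step and counted on 4× images, and relative viability is the nuclei count of treated wells over that of vehicle wells, given as the median of duplicate plates.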

[2] = compound: CS(=O)(=O)c1ccc(C(=O)Nc2ccc(Cl)c(-c3ccccn3)c2)c(Cl)c1 [Vismodegib] + Nc1ncn([C@H]2C[C@H](O)[C@@H](CO)O2)c(=O)n1 [Decitabine] (partner 2 µM)
In short: as §1

[3] = compound: N#CC[C@H](C1CCCC1)n1cc(-c2ncnc3[nH]ccc23)cn1 [Ruxolitinib] + C[C@]1(O)C[C@@H](c2nc(-c3ccc4ccc(-c5ccccc5)nc4c3)c3c(N)nccn32)C1 [Linsitinib] (partner 1 µM)
In short: as §1

[4] = compound: CS(=O)(=O)c1ccc(C(=O)Nc2ccc(Cl)c(-c3ccccn3)c2)c(Cl)c1 [Vismodegib] + COc1cc2c(Oc3ccc(NC(=O)C4(C(=O)Nc5ccc(F)cc5)CC4)cc3F)ccnc2cc1OCCCN1CCOCC1 [Foretinib] (partner 0.25 µM)
In short: as §1

Q: With UMC-11 as the cell line, how does the relative viability ([1]; first compound 0.08 µM) read?
A: Its relative viability is 0.344.

Q: And the relative viability ([1]; first compound 0.253 µM)?
A: The relative viability was 0.326.

Q: What about the relative viability ([1]; first compound 0.8 µM) of the same cell line?
A: The relative viability was 0.356.

Q: And the relative viability ([1]; first compound 2.53 µM)?
A: The relative viability was 0.279.

Q: What about the relative viability ([1]; first compound 8 µM) of the same cell line?
A: The relative viability was 0.257.

Q: And the relative viability ([2]; first compound 0.08 µM)?
A: Its relative viability is 0.623.

Q: What about the relative viability ([2]; first compound 0.253 µM) of the same cell line?
A: The relative viability was 0.579.

Q: And the relative viability ([2]; first compound 0.8 µM)?
A: Its relative viability is 0.489.

Q: And the relative viability ([2]; first compound 2.53 µM)?
A: The relative viability was 0.457.

Q: And the relative viability ([2]; first compound 8 µM)?
A: Its relative viability is 0.53.

Q: And the relative viability ([3]; first compound 0.08 µM)?
A: The relative viability was 1.03.

Q: And the relative viability ([3]; first compound 0.253 µM)?
A: Its relative viability is 1.08.

Q: What about the relative viability ([3]; first compound 0.8 µM) of the same cell line?
A: The relative viability was 1.08.

Q: And the relative viability ([3]; first compound 2.53 µM)?
A: Its relative viability is 1.11.

Q: And the relative viability ([3]; first compound 8 µM)?
A: The relative viability was 0.96.

Q: And the relative viability ([4]; first compound 0.08 µM)?
A: The relative viability was 0.996.

Q: What about the relative viability ([4]; first compound 0.253 µM) of the same cell line?
A: Its relative viability is 0.961.

Q: And the relative viability ([4]; first compound 0.8 µM)?
A: Its relative viability is 1.07.

Q: What about the relative viability ([4]; first compound 2.53 µM) of the same cell line?
A: The relative viability was 0.923.

Q: What about the relative viability ([4]; first compound 8 µM) of the same cell line?
A: The relative viability was 1.04.
